From the NIST ThermoML archive (doi:10.1021/acs.jced.7b00654)

Tests used:
[1] = xn = mol fraction of the nth substance listed; conditions: 96.7 kPa, Liquid, Vibrating tube method
[2] = 96.7 kPa, Vibrating tube method

CN(C)C=O [dimethylformamide] + CCCCn1cc[n+](C)c1.[Cl-]
[1], x2 = 0
Conditions | mass density [kg/m3]
303.15 K | 939.18
308.15 K | 934.41
313.15 K | 929.64
318.15 K | 924.86
323.15 K | 920.07
328.15 K | 915.26
333.15 K | 910.44
338.15 K | 905.6
343.15 K | 900.74
348.15 K | 895.87
353.15 K | 890.98

CCCCn1cc[n+](C)c1.[Cl-] [1-butyl-3-methylimidazolium chloride] + c1ccncc1
[1], x1 = 1
Conditions | mass density [kg/m3]
303.15 K | 1079.41
308.15 K | 1076.58
313.15 K | 1073.78
318.15 K | 1070.99
323.15 K | 1068.19
328.15 K | 1065.36
333.15 K | 1062.6
338.15 K | 1059.87
343.15 K | 1057.15
348.15 K | 1054.42
353.15 K | 1051.69

CCCCn1cc[n+](C)c1.[Cl-] [1-butyl-3-methylimidazolium chloride]
[2]
Conditions | mass density [kg/m3]
303.15 K, Metastable liquid | 1079.41
308.15 K, Metastable liquid | 1076.58
313.15 K, Metastable liquid | 1073.78
318.15 K, Metastable liquid | 1070.99
323.15 K, Metastable liquid | 1068.19
328.15 K, Metastable liquid | 1065.36
333.15 K, Metastable liquid | 1062.6
338.15 K, Metastable liquid | 1059.87
343.15 K, Liquid | 1057.15
348.15 K, Liquid | 1054.42
353.15 K, Liquid | 1051.69

CC(=O)N(C)C [N,N-dimethylethanamide] + CCCCn1cc[n+](C)c1.[Cl-]
[1], x2 = 0
Conditions | mass density [kg/m3]
303.15 K | 931.85
308.15 K | 927.26
313.15 K | 922.66
318.15 K | 918.06
323.15 K | 913.44
328.15 K | 908.81
333.15 K | 904.16
338.15 K | 899.53
343.15 K | 894.87
348.15 K | 890.19
353.15 K | 885.51

C[S+](C)[O-] [dimethyl sulfoxide] + CCCCn1cc[n+](C)c1.[Cl-]
[1], x2 = 0
Conditions | mass density [kg/m3]
303.15 K | 1090.29
308.15 K | 1085.28
313.15 K | 1080.3
318.15 K | 1075.31
323.15 K | 1070.32
328.15 K | 1065.33
333.15 K | 1060.34
338.15 K | 1055.34
343.15 K | 1050.35
348.15 K | 1045.34
353.15 K | 1040.33
